# Measured values taken from patent US8334261B2, “Osteopenia animal model” (Oriental Yeast Co., Ltd., priority 2006, dated 2012).
# Experiments:
# [1] = tested on: 7-week-old female C57BL/6N mice; experiment: Tibial bone morphology measurement after GST-RANKL 2 mg/kg; type: in vivo, mouse; settings: 2 mg/kg i.p. 3 times
# Procedure: GST-RANKL was intraperitoneally administered 3 times to groups of 7-week-old female C57BL/6N mice at 2 mg/kg every 24 hours, followed by dissection. The tibia of each mouse was subjected to toluidine blue staining and morphology measurement. A solvent (PBS) was administered to the control group in the same manner as above. The GST-RANKL intraperitoneal administration group was subjected to tibial bone morphology measurement. The unit bone mass (BV/TV), the trabecular width (Tb.Th), and the trabecular number (Tb.N) decreased by approximately 30% (p<0.03), approximately 10% (P<0.03), and approximately 20% (p<0.05), respectively, compared with those for the control group (FIGS. 29 to 31). In addition, the osteoid thickness (O.Th), the eroded surface area (ES/BS), the osteoclast number (N.Oc/B.Pm), and the osteoclast surface area (Oc.S/BS) increased, respectively, to approximately 1.2-fold (p<0.04), approximately 1.8-fold (p<0.001), approximately 1.9-fold (p<0.001), and approximately 1.8-fold (p<0.001) as high as those for the control group (FIGS. 32 to 35). In addition, the sections obtained in this Example were subjected to TRAP staining. […] That is, the osteopenia mechanism induced by GST-RANKL administration involves promotion of bone resorption, but not reduction in osteogenesis. However, the aforementioned coupling phenomenon causes promotion of osteogenesis depending on the GST-RANKL dose, the number of doses, and the period of time elapsed after administration, which might results in an increase in the osteoblast surface area.
# [2] = tested on: GST-RANKL-administered 7-week-old female C57BL/6 mice; experiment: Comparison of a plurality of bisphosphonates in GST-RANKL mice; type: in vivo, mouse; settings: for femur bone density decrease vs PBS group: GST-RANKL 1 mg/kg 3 times
# Procedure: GST-RANKL was intraperitoneally administered 3 times at 1 mg/kg every 24 hours. The femur, tibia, and serum were collected from each mouse 1.5 hours after the 3rd GST-RANKL administration. Measurement of TRAP-5b, calcium (Ca), and alkaline phosphatase (ALP) in the serum was carried out. Each femur was subjected to bone density measurement with pQCT and image analysis with micro CT.
# [3] = tested on: 7-week-old female C57BL/6N mice; experiment: Bone healing after GST-RANKL administration; type: in vivo, mouse
# Procedure: GST-RANKL was intraperitoneally administered twice to groups of 7-week-old female C57BL/6N mice at 1 mg/kg every 24 hours. The time point 24 hours after the 2nd administration was designated as “week 0.” The serum and femur were collected from each mouse separately at weeks 0, 1, 4, 6, and 8 and compared with those collected from mice subjected to PBS administration in a similar manner. Regarding bone metabolism markers, TRAP-5b, calcium (Ca), and alkaline phosphatase (ALP) in the serum were measured. Each femur was subjected to bone density measurement with pQCT and image analysis with micro CT.
# The bone density was measured at points 0.6 mm, 0.8 mm, 1.0 mm from the distal growth plate on the proximal side of the femur with the use of pQCT.
# [4] = tested on: 7-week-old female ICR mice; experiment: Evaluation of mice of the other lineages (ICR); type: in vivo, mouse
# Procedure: GST-RANKL was intraperitoneally administered 3 times to groups of 7-week-old female ICR mice at 1 mg/kg every 24 hours. The femur and serum were collected from each mouse 1.5 hours after the 3rd administration and compared with those of the PBS administration group. Regarding bone metabolism markers, TRAP-5b, calcium (Ca), and alkaline phosphatase (ALP) in the serum were measured. Each femur was subjected to bone density measurement with pQCT and image analysis with micro CT.
# [5] = tested on: 7-week-old female C57BL/6N mice; experiment: Evaluation of a bone mass increase with PTH (GST-RANKL, ovariectomy); type: in vivo, mouse; settings: for femur bone density decrease vs PBS+Sham: GST-RANKL+Sham
# Procedure: GST-RANKL was administered twice to groups of 7-week-old female C57BL/6N mice at 1 mg/kg every 24 hours. Ovariectomy was performed 24 hours after the 2nd administration. In addition, parathyroid hormone (PTH) was subcutaneously administered thereto at 160 μg/kg from 24 hours after the ovariectomy for 10 consecutive days. Further, a group obtained by PBS administration and sham operation (Sham) was designated as a control group for comparison. The serum markers and the femur bone density were measured.
# [6] = tested on: 8-week-old female C57BL/6N mice; experiment: Administration of GST-RANKL to mouse calvaria; type: in vivo; settings: 3 days
# Procedure: GST-RANKL was administered to the calvaria of groups of 8-week-old female C57BL/6N mice for 3 days. The femur was collected from each mouse on day 5 day after the initiation of experimentation. The femur bone density was evaluated with pQCT. Experimentation was conducted with the use of the following three experimental groups: the experimental group 1 subjected to administration of GST-RANKL at 0.5 mg/kg twice daily; the experimental group 2 subjected to administration of GST-RANKL at 1 mg/kg once daily; and the PBS group serving as a control group for comparison and being subjected to PBS administration. Cancellous bone density measurement was carried out at points 0.6 mm, 0.8 mm, and 1.0 mm from the distal growth plate on the proximal side of the collected femur with pQCT.
substance,measurement,setting,value
"GST-RANKL: fused protein of Glutathione S-transferase with human RANKL residues 140-317, expressed in Escherichia coli, 47.0 kDa",osteoblast surface area,[1],no increase
same,"eroded surface area (ES/BS), fold as high as control",[1]; tibia,approximately 1.8 fold
same,"osteoclast number (N.Oc/B.Pm), fold as high as control",[1]; tibia,approximately 1.9 fold
same,"osteoclast surface area (Oc.S/BS), fold as high as control",[1]; tibia,approximately 1.8 fold
same,"osteoid thickness (O.Th), fold as high as control",[1]; tibia,approximately 1.2 fold
same,trabecular number (Tb.N) decrease vs control,[1]; tibia,approximately 20%
same,trabecular width (Tb.Th) decrease vs control,[1]; tibia,approximately 10%
same,unit bone mass (BV/TV) decrease vs control,[1]; tibia,approximately 30%
same,osteoclast number by TRAP staining,[1]; tibia sections,greater than that for the control group
same,femur bone density decrease vs PBS group,[2]; 0.6 mm,7%
same,femur bone density decrease vs PBS group,[2]; 0.8 mm,13%
same,femur bone density decrease vs PBS group,[2]; 1.0 mm,18%
same,serum TRAP-5b concentration increase,"[2]; GST-RANKL 1 mg/kg i.p. 3 times, no significant difference",approximately 40%
same,serum Ca concentration,"[3]; 1 mg/kg i.p. twice, weeks 0 to 8",no significant difference
same,"femur bone density decreased to, vs PBS group","[3]; 0.6 mm, week 0",5%
same,"femur bone density decreased to, vs PBS group","[3]; 0.6 mm, week 1",7%
same,"femur bone density decreased to, vs PBS group","[3]; 0.6 mm, week 4",9%
same,"femur bone density decreased to, vs PBS group","[3]; 0.8 mm, week 0",10%
same,"femur bone density decreased to, vs PBS group","[3]; 0.8 mm, week 1",11%
same,"femur bone density decreased to, vs PBS group","[3]; 0.8 mm, week 4",15%
same,"femur bone density decreased to, vs PBS group","[3]; 1.0 mm, week 0",16%
same,"femur bone density decreased to, vs PBS group","[3]; 1.0 mm, week 1",13%
same,"femur bone density decreased to, vs PBS group","[3]; 1.0 mm, week 4",11%
same,"serum TRAP-5b concentration, fold as high as PBS group",[3]; 24 hours after RANKL administration (0 week),approximately 3 fold
same,femur bone density vs PBS group,[3]; week 6,returned to a level comparable to that for the PBS administration group
same,"serum ALP concentration, fold as high",[3]; weeks 0 and 1,approximately 1.4 fold
same,serum ALP concentration,[4]; 1 mg/kg i.p. 3 times,no changes
same,serum Ca concentration vs control,[4]; 1 mg/kg i.p. 3 times,no changes
same,"serum TRAP-5b concentration, fold as high as PBS group",[4]; 1 mg/kg i.p. 3 times,1.8 fold
same,femur bone density decrease vs control,[4]; 1.0 mm,approximately 20%
same,femur bone density decrease vs control,[4]; 1.2 mm,approximately 20%
same,femur bone density decrease vs control,[4]; 1.4 mm,approximately 22%
same,femur bone density vs PBS+Sham,[5]; GST-RANKL+OVX group,No bone density decrease was observed
same,femur bone density decrease vs PBS+Sham,[5]; 0.6 mm,approximately 17%
same,femur bone density decrease vs PBS+Sham,[5]; 0.8 mm,~15%
same,femur bone density decrease vs PBS+Sham,[5]; 1.0 mm,~18%
same,serum Ca concentration,[5]; every GST-RANKL administration group,no changes
same,serum ALP concentration decrease,"[5]; every GST-RANKL administration group, 1 mg/kg twice",approximately 24%
same,femur cancellous bone density vs PBS group,"[6]; experimental group 1: 0.5 mg/kg twice daily to the calvarium, at the measurement points",bone density decrease was observed
same,femur cancellous bone density vs PBS group,"[6]; experimental group 2: 1 mg/kg once daily to the calvarium, at 0.8 mm and 1.0 mm",bone density decrease was observed
